The structures appear in SMILES notation.

Test [1] relates to Jurkat human T lymphocyte cell line. Briefly: Annexin V apoptosis assay. Type of test: cell-based. As to conditions: 24 hours, compound pre-incubated in human serum 48 hours, FIG. 1. Here is the method:
(§1) Pooled human serum was stored in aliquots at −80° C. Test compounds were added at 20 mM to thawed human serum in 1.5 ml microfuge tubes and incubated at 37° C. in a water bath for 48 hours. The test samples were placed on ice until dilution for the bioassay. Controls consisted of the compounds incubated in complete tissue culture medium (RPMI 1640 medium plus 5% heat-inactivated fetal calf serum, 1% HEPES, 1% pen/strep, 1% glutamine) rather than human serum.
Test samples (incubated in human serum as described in section A) were diluted to 1 mM in complete tissue culture medium. Aliquots were placed in microculture plates and serial dilutions were prepared so that the final concentration would encompass the range of 2 to 6,000 nM with half-log increments. […]
After 24 hours, the plates were centrifuged to pellet the cells, and the cells were washed twice with 2% heat-inactivated fetal calf serum in PBS. […] The contents of the wells were individually transferred into test tubes, and apoptosis was analyzed using a FACSCalibur flow cytometer (BD Immunocytometry Systems, San Jose, Calif.). Cells positive for Annexin V binding were considered to be apoptotic, and the data were calculated as percent apoptotic cells. […]

Test [2] concerns IL-2 production by Jurkat cells. Briefly: IL-2 production assay. Type of test: cell-based. As to conditions: Jurkat cells stimulated with anti-CD3 antibody and PMA, 24 hours; compound pre-incubated in human serum; FIG. 2. Here is the method: as §1
Test samples, incubated in human serum as described in Example 2A, were diluted to 1 mM in complete tissue culture medium. Aliquots were placed in microculture plates that had been coated with anti-CD3 antibody (used to stimulate the production of IL-2 by Jurkat cells), and serial dilutions were prepared so that the final concentration would encompass the range of 0.001 to 10,000 nM in log increments. […] The stored supernatants were analyzed for human IL-2 concentration using the Luminex 100 (Luminex Corporation, Austin, Tex.), Luminex microspheres coupled with anti-IL-2 capture antibody, and fluorochrome-coupled anti-IL-2 detection antibody. The data were expressed as ng/ml of IL-2. […]

Test [3] concerns HT-29 human colon cancer cell line. As to conditions: HT-29 tumor xenografts, U.S. Pat. No. 6,620,843, cited from earlier work.

`CC(C)[C@]12O[C@H]1[C@@H]1O[C@]13[C@]1(O[C@H]1C[C@H]1C4=C(CC[C@@]13C)C(=O)OC4)[C@]2(C)O` [PG670, 14-C-methyltriptolide]: the “induction of apoptosis (percent apoptotic cells, Annexin V)” value in test [1] was “dose-dependent induction of apoptosis”. Besides, in test [2], the “inhibition of IL-2 production” value was “inhibition of IL-2 production”.
As for `CC(C)[C@]12O[C@H]1[C@@H]1O[C@]13[C@]1(O[C@H]1C[C@H]1C4=C(CC[C@@]13C)C(=O)OC4)[C@@H]2OC(=O)CCC(=O)O` [triptolide 14-succinate], in test [3], the tumor regression result is “induced tumor regression”. For the same compound, the tumor growth inhibition entry in test [3] (in comparison to 5-FU and CPT-11) is on record as “strongly inhibited tumor growth”.

Values taken from patent US7098348B2, “Triptolide derivatives as immunomodulators and anticancer agents” (priority 2002, dated 2006).
